Ends that are not written are not given here.
Legend:
[1] = test system: human pancreatic ductal epithelial cells (HPNE)
Experimental: (§1) The cytotoxicity of 73 synthetic peptides was evaluated using four human cell lines: human pancreatic ductal epithelial cells (HPNE), human embryonic kidney cells (HEK293T), human umbilical vein endothelial cells (HUVEC), and human bronchial epithelial cells (BEAS-2B). When cell density reached 70% confluence, the complete culture medium was replaced with serum-free maintenance medium, and peptides were added at a final concentration of 100 μM for 36 h. Control groups received only serum-free maintenance medium without peptides. Cell proliferation was assessed using the CCK-8 assay kit (Solarbio, CA1210) according to the manufacturer’s instructions.

[2] = test system: human embryonic kidney cells (HEK293T)
[3] = test system: human umbilical vein endothelial cells (HUVEC)
Experimental: as §1

[4] = Electronic tongue analysis (Taste-Sensing System SA 402B); parameters: unit not given here; conditions: reference solution 30 mM KCl + 0.3 mM tartaric acid as baseline, first measurement excluded; for Umami: sensor AAE; for Umami / Bitter / Sweet: detection threshold 0, room temperature; for Umami / Bitter / Sour / Salty: four replicates; for Sour: detection threshold -13, room temperature; for Salty: detection threshold -6, room temperature; for Sweet: measured five times
In short: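 Samples were tested at 0.1 and 1.0 mg/mL on an SA 402B e-tongue fitted with sourness, saltiness, bitterness, sweetness and umami sensors, with 30 mM KCl/0.3 mM tartaric acid as reference and baseline. Thresholds were −13 for sour, −6 for salty and 0 for the rest. Runs at room temperature: four replicates, five for sweetness, first reading discarded.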

[5] = test system: human bronchial epithelial cells (BEAS-2B)

| Substance | Average cell viability, HPNE [1] | Cell viability, HPNE, Data1 [1] | Cell viability, HPNE, Data2 [1] | Cell viability, HPNE, Data3 [1] | Average cell viability, HEK293T [2] | Cell viability, HEK293T, Data1 [2] | Cell viability, HEK293T, Data2 [2] | Cell viability, HEK293T, Data3 [2] | Average cell viability, HUVEC [3] | Cell viability, HUVEC, Data1 [3] | Cell viability, HUVEC, Data2 [3] | Cell viability, HUVEC, Data3 [3] | Umami ([4]; peptide 0.1 mg/mL) | Umami ([4]; peptide 1 mg/mL) | Bitter ([4]; sensor C00, peptide 0.1 mg/mL) | Bitter ([4]; sensor C00, peptide 1 mg/mL) | Sour ([4]; sensor CA0, peptide 0.1 mg/mL) | Sour ([4]; sensor CA0, peptide 1 mg/mL) | Salty ([4]; sensor CT0, peptide 0.1 mg/mL) | Salty ([4]; sensor CT0, peptide 1 mg/mL) | further results |
| --- | --- | --- | --- | --- | --- | --- | --- | --- | --- | --- | --- | --- | --- | --- | --- | --- | --- | --- | --- | --- | --- |
| EKGVQ [TaPep64] | 98.34 | 89.85 | 95.04 | 110.12 | 103.19 | 103.53 | 102.87 | 103.15 | 104.98 | 101.54 | 110.56 | 102.82 | 1.91 | -4.02 | 7.39 | 3.04 | -4.25 | 9.90 | -21.79 | 10.50 | Sweet ([4]; sensor GL1, peptide 0.1 mg/mL): 4.85; Sweet ([4]; sensor GL1, peptide 1 mg/mL): -4.54; Average cell viability, BEAS-2B [5]: 103.99; Cell viability, BEAS-2B, Data1 [5]: 103.09; Cell viability, BEAS-2B, Data2 [5]: 103.59; Cell viability, BEAS-2B, Data3 [5]: 105.28 |
| EPKVLV [TaPep54] | 100.23 | 115.91 | 95.44 | 89.35 | 102.24 | 103.15 | 102.49 | 101.07 | 110.64 | 113.84 | 114.72 | 103.38 | 3.06 | -3.47 | 7.63 | 2.50 | -7.11 | 8.51 | -20.20 | 10.59 | Sweet ([4]; sensor GL1, peptide 0.1 mg/mL): 9.28; Sweet ([4]; sensor GL1, peptide 1 mg/mL): -6.29; Average cell viability, BEAS-2B [5]: 102.43; Cell viability, BEAS-2B, Data1 [5]: 95.01; Cell viability, BEAS-2B, Data2 [5]: 108.18; Cell viability, BEAS-2B, Data3 [5]: 104.09 |
| EQGEQN [TaPep15] | 101.30 | 84.06 | 112.61 | 107.22 | 92.65 | 98.80 | 86.59 | 92.56 | 100.56 | 103.30 | 104.26 | 94.12 | 3.17 | -3.63 | 6.27 | 4.11 | -7.15 | 8.97 | -23.91 | 2.97 | Sweet ([4]; sensor GL1, peptide 0.1 mg/mL): 9.72; Sweet ([4]; sensor GL1, peptide 1 mg/mL): -3.92; Average cell viability, BEAS-2B [5]: 103.09; Cell viability, BEAS-2B, Data1 [5]: 105.68; Cell viability, BEAS-2B, Data2 [5]: 95.51; Cell viability, BEAS-2B, Data3 [5]: 108.08 |
| EQPLQA [TaPep21] | 98.70 | 92.25 | 87.35 | 116.51 | 97.76 | 94.35 | 95.58 | 103.34 | 102.16 | 96.59 | 98.43 | 111.44 | 0.99 | -5.14 | 7.83 | 3.66 | -1.59 | 12.04 | -19.46 | 7.62 | Sweet ([4]; sensor GL1, peptide 0.1 mg/mL): 5.53; Sweet ([4]; sensor GL1, peptide 1 mg/mL): -10.15; Average cell viability, BEAS-2B [5]: 98.84; Cell viability, BEAS-2B, Data1 [5]: 92.62; Cell viability, BEAS-2B, Data2 [5]: 108.57; Cell viability, BEAS-2B, Data3 [5]: 95.31 |
| ESKDQ [TaPep55] | 94.61 | 105.92 | 82.36 | 95.54 | 98.14 | 94.73 | 101.07 | 98.61 | 102.82 | 107.29 | 96.11 | 105.06 | 1.27 | -4.53 | 7.76 | 2.75 | -2.34 | 11.12 | -19.80 | 11.30 | Sweet ([4]; sensor GL1, peptide 0.1 mg/mL): 5.21; Sweet ([4]; sensor GL1, peptide 1 mg/mL): -7.81; Average cell viability, BEAS-2B [5]: 109.14; Cell viability, BEAS-2B, Data1 [5]: 112.96; Cell viability, BEAS-2B, Data2 [5]: 98.40; Cell viability, BEAS-2B, Data3 [5]: 116.05 |
